Laboratory results taken from publication PMC8401933 (Molecules, 2021).

Experiments:
Test in all cases: KINOMEscan binding
[1] = target: T1, RPS6KA4(Kin.Dom.2-C-terminal) (Homo sapiens, UniProt O75676); conditions: read-out: Percent Control
T1 construct: RPS6KA4(Kin.Dom.2-C-terminal); purchased Eurofins DiscoverX KINOMEscan

ALK(L1196M) = target: T2, ALK(L1196M) (Homo sapiens, UniProt Q9UM73, L1196M); conditions: read-out: Percent Control
T2 construct: purchased Eurofins DiscoverX KINOMEscan

MLK2 = target: T3, MLK2 (Homo sapiens, UniProt Q02779); conditions: read-out: Percent Control
T3 construct: purchased Eurofins DiscoverX KINOMEscan

[2] = target: T4, ABL1(E255K)-phosphorylated (Homo sapiens, UniProt P00519, E255K); conditions: read-out: Percent Control
T4 construct: purchased Eurofins DiscoverX KINOMEscan

[3] = target: T5, JAK1(JH1domain-catalytic) (Homo sapiens, UniProt P23458); conditions: read-out: Percent Control
T5 construct: JAK1(JH1domain-catalytic); purchased Eurofins DiscoverX KINOMEscan

WEE1 = target: T6, WEE1 (Homo sapiens, UniProt P30291); conditions: read-out: Percent Control
T6 construct: purchased Eurofins DiscoverX KINOMEscan

MYO3A = target: T7, MYO3A (Homo sapiens, UniProt Q8NEV4); conditions: read-out: Percent Control
T7 construct: purchased Eurofins DiscoverX KINOMEscan

ANKK1 = target: T8, ANKK1 (Homo sapiens, UniProt Q8NFD2); conditions: read-out: Percent Control
T8 construct: purchased Eurofins DiscoverX KINOMEscan

MAPKAPK5 = target: T9, MAPKAPK5 (Homo sapiens, UniProt Q8IW41); conditions: read-out: Percent Control
T9 construct: purchased Eurofins DiscoverX KINOMEscan

ZAK = target: T10, ZAK (Homo sapiens, UniProt Q9NYL2); conditions: read-out: Percent Control
T10 construct: purchased Eurofins DiscoverX KINOMEscan

CAMK2D = target: T11, CAMK2D (Homo sapiens, UniProt Q13557); conditions: read-out: Percent Control
T11 construct: purchased Eurofins DiscoverX KINOMEscan

CDC2L2 = target: T12, CDC2L2 (Homo sapiens, UniProt Q9UQ88); conditions: read-out: Percent Control
T12 construct: purchased Eurofins DiscoverX KINOMEscan

FLT3(ITD,D835V) = test system: FLT3(ITD,D835V); parameters: species or system human; conditions: 10 μM
PIK3CA(C420R) = target: T13, PIK3CA(C420R) (Homo sapiens, UniProt P42336, C420R); conditions: read-out: Percent Control
T13 construct: purchased Eurofins DiscoverX KINOMEscan

PFPK5(P.falciparum) = target: T14, PFPK5(P.falciparum) (Plasmodium falciparum, UniProt P61075); conditions: read-out: Percent Control
T14 construct: purchased Eurofins DiscoverX KINOMEscan

SRPK2 = target: T15, SRPK2 (Homo sapiens, UniProt P78362); conditions: read-out: Percent Control
T15 construct: purchased Eurofins DiscoverX KINOMEscan

TYRO3 = target: T16, TYRO3 (Homo sapiens, UniProt Q06418); conditions: read-out: Percent Control
T16 construct: purchased Eurofins DiscoverX KINOMEscan

MARK1 = target: T17, MARK1 (Homo sapiens, UniProt Q9P0L2); conditions: read-out: Percent Control
T17 construct: purchased Eurofins DiscoverX KINOMEscan

SGK2 = target: T18, SGK2 (Homo sapiens, UniProt Q9HBY8); conditions: read-out: Percent Control
T18 construct: purchased Eurofins DiscoverX KINOMEscan

S6K1 = target: T19, S6K1 (Homo sapiens, UniProt P23443); conditions: read-out: Percent Control
T19 construct: purchased Eurofins DiscoverX KINOMEscan

CSNK1G1 = target: T20, CSNK1G1 (Homo sapiens, UniProt Q9HCP0); conditions: read-out: Percent Control
T20 construct: purchased Eurofins DiscoverX KINOMEscan

PIK3C2G = target: T21, PIK3C2G (Homo sapiens, UniProt O75747); conditions: read-out: Percent Control
T21 construct: purchased Eurofins DiscoverX KINOMEscan

SIK = target: T22, SIK (Homo sapiens, UniProt P57059); conditions: read-out: Percent Control
T22 construct: purchased Eurofins DiscoverX KINOMEscan

EPHB6 = target: T23, EPHB6 (Homo sapiens, UniProt O15197); conditions: read-out: Percent Control
T23 construct: purchased Eurofins DiscoverX KINOMEscan

EPHA7 = target: T24, EPHA7 (Homo sapiens, UniProt Q15375); conditions: read-out: Percent Control
T24 construct: purchased Eurofins DiscoverX KINOMEscan

PIM3 = target: T25, PIM3 (Homo sapiens, UniProt Q86V86); conditions: read-out: Percent Control
T25 construct: purchased Eurofins DiscoverX KINOMEscan

TEC = target: T26, TEC (Homo sapiens, UniProt P42680); conditions: read-out: Percent Control
T26 construct: purchased Eurofins DiscoverX KINOMEscan

MLK1 = target: T27, MLK1 (Homo sapiens, UniProt P80192); conditions: read-out: Percent Control
T27 construct: purchased Eurofins DiscoverX KINOMEscan

CAMK2G = target: T28, CAMK2G (Homo sapiens, UniProt Q13555); conditions: read-out: Percent Control
T28 construct: purchased Eurofins DiscoverX KINOMEscan

VRK2 = target: T29, VRK2 (Homo sapiens, UniProt Q86Y07); conditions: read-out: Percent Control
T29 construct: purchased Eurofins DiscoverX KINOMEscan

PAK2 = target: T30, PAK2 (Homo sapiens, UniProt Q13177); conditions: read-out: Percent Control
T30 construct: purchased Eurofins DiscoverX KINOMEscan

FLT3(ITD) = test system: FLT3(ITD); parameters: species or system human; conditions: 10 μM
CSNK1A1L = target: T31, CSNK1A1L (Homo sapiens, UniProt Q8N752); conditions: read-out: Percent Control
T31 construct: purchased Eurofins DiscoverX KINOMEscan

[4] = target: T32, ABL1(Q252H)-nonphosphorylated (Homo sapiens, UniProt P00519, Q252H); conditions: read-out: Percent Control
T32 construct: purchased Eurofins DiscoverX KINOMEscan

MTOR = target: T33, MTOR (Homo sapiens, UniProt P42345); conditions: read-out: Percent Control
T33 construct: purchased Eurofins DiscoverX KINOMEscan

ACVR1B = target: T34, ACVR1B (Homo sapiens, UniProt P36896); conditions: read-out: Percent Control
T34 construct: purchased Eurofins DiscoverX KINOMEscan

CDK5 = target: T35, CDK5 (Homo sapiens, UniProt Q00535); conditions: read-out: Percent Control
T35 construct: purchased Eurofins DiscoverX KINOMEscan

TSSK3 = target: T36, TSSK3 (Homo sapiens, UniProt Q96PN8); conditions: read-out: Percent Control
T36 construct: purchased Eurofins DiscoverX KINOMEscan

ICK = target: T37, ICK (Homo sapiens, UniProt Q9UPZ9); conditions: read-out: Percent Control
T37 construct: purchased Eurofins DiscoverX KINOMEscan

RAF1 = target: T38, RAF1 (Homo sapiens, UniProt P04049); conditions: read-out: Percent Control
T38 construct: purchased Eurofins DiscoverX KINOMEscan

SNARK = target: T39, SNARK (Homo sapiens, UniProt Q9H093); conditions: read-out: Percent Control
T39 construct: purchased Eurofins DiscoverX KINOMEscan

ERK1 = target: T40, ERK1 (Homo sapiens, UniProt P27361); conditions: read-out: Percent Control
T40 construct: purchased Eurofins DiscoverX KINOMEscan

CHEK1 = target: T41, CHEK1 (Homo sapiens, UniProt O14757); conditions: read-out: Percent Control
T41 construct: purchased Eurofins DiscoverX KINOMEscan

T31 sequence (Q8N752 whole entry): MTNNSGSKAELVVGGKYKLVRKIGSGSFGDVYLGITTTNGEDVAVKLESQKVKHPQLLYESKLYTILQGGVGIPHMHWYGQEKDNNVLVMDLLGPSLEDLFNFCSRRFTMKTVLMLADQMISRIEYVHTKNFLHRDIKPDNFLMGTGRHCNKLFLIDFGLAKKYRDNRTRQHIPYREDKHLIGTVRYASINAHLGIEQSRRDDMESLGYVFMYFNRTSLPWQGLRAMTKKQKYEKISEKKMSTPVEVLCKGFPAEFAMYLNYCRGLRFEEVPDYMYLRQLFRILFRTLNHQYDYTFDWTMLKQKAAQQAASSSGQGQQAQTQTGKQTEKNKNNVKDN
T5 sequence (P23458 854-1154 limits assumed): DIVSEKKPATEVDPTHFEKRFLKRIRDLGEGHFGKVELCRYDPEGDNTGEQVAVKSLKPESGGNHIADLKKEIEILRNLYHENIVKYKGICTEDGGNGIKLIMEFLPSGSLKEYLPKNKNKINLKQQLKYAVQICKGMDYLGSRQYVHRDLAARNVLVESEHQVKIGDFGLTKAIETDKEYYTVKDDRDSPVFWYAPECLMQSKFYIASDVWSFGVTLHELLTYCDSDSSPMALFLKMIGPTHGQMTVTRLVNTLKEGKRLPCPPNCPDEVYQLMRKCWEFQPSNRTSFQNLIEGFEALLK
T13 sequence (P42336 whole entry C420R): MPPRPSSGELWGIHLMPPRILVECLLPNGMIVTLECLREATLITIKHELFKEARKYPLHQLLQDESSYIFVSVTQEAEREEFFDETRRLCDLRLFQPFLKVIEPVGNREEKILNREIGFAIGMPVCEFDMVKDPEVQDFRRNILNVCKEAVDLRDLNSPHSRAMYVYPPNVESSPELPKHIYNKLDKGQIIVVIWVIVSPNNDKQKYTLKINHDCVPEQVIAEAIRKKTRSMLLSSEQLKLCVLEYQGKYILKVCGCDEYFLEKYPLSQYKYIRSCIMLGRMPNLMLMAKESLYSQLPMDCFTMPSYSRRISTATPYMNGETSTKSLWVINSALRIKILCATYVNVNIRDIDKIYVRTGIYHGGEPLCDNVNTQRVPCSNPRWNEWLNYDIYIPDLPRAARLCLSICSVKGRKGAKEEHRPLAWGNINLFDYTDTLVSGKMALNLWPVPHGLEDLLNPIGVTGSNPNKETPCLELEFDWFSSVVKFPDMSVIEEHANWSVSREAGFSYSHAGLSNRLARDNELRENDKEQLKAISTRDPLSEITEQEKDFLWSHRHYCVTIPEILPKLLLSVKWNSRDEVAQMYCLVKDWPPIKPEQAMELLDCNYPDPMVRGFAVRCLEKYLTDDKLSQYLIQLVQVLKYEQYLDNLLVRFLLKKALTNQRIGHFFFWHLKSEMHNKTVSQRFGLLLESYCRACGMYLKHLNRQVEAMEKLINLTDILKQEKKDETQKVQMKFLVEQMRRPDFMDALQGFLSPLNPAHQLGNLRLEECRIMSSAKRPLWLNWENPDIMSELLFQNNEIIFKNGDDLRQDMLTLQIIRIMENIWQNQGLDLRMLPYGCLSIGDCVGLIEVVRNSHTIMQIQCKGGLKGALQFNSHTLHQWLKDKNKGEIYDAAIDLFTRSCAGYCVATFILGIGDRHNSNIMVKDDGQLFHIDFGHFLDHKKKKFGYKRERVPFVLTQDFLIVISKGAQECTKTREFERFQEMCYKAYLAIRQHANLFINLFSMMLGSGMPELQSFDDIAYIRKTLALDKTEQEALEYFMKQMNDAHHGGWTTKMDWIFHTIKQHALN
T3 sequence (Q02779 whole entry): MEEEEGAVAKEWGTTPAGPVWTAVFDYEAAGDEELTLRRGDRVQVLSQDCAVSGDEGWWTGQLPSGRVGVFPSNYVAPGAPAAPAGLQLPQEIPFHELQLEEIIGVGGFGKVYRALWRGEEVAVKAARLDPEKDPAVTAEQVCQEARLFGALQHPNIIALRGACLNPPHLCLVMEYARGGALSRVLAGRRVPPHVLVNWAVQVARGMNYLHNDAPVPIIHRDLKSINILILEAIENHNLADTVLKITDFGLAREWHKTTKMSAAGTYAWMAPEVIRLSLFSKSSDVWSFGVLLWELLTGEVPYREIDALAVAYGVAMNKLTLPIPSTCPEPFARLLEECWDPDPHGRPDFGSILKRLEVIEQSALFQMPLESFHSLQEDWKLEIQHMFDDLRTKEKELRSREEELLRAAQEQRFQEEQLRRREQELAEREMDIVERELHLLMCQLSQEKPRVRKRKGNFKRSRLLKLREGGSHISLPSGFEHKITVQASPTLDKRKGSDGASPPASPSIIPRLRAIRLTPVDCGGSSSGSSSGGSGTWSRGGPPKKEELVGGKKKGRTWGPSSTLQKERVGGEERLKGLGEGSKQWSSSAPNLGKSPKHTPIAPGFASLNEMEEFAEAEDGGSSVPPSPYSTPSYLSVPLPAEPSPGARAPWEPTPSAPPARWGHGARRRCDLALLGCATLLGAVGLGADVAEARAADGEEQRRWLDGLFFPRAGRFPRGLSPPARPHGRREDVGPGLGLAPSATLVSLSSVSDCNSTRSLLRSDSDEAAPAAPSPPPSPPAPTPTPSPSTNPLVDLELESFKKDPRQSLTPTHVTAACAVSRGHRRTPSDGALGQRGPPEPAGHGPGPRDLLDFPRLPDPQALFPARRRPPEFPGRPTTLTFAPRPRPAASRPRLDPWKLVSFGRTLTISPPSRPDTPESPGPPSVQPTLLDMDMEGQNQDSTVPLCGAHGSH
T7 sequence (Q8NEV4 whole entry): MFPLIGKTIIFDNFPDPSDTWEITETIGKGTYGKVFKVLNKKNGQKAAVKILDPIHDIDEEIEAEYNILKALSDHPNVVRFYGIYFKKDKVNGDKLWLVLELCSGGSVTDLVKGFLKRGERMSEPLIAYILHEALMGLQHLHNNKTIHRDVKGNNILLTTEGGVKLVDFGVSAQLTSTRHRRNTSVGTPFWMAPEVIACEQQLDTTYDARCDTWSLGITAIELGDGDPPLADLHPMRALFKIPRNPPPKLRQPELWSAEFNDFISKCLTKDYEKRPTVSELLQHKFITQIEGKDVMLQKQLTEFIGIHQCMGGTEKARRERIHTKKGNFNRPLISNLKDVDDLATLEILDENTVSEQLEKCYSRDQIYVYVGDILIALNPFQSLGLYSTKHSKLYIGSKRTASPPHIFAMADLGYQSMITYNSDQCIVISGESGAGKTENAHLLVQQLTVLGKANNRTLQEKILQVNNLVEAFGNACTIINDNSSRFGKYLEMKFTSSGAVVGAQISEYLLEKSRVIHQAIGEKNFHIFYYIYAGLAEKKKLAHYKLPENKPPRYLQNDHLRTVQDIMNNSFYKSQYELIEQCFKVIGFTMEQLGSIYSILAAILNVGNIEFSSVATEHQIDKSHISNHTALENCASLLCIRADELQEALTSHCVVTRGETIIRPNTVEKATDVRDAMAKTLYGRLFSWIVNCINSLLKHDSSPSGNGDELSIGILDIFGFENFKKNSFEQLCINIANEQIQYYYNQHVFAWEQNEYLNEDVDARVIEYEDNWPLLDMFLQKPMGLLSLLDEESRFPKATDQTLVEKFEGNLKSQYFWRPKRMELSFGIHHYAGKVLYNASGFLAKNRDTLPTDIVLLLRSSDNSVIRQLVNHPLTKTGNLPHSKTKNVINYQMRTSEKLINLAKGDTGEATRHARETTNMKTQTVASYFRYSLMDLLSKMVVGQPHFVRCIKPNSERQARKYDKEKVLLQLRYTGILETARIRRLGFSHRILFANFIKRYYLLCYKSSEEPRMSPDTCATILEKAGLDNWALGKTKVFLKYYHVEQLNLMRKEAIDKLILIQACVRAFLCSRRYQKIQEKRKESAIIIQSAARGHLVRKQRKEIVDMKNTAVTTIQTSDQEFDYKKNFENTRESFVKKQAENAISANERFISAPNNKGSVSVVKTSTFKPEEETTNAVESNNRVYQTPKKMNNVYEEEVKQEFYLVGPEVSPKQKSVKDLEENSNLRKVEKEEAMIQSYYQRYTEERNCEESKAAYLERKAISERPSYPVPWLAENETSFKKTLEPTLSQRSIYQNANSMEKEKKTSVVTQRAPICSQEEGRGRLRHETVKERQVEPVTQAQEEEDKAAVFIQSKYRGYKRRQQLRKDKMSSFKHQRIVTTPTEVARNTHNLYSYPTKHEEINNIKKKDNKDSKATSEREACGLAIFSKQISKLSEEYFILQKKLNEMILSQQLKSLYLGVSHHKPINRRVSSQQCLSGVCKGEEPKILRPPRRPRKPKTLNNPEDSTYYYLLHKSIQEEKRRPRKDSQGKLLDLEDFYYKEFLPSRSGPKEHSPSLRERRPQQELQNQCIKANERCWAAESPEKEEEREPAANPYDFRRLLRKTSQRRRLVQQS
T18 sequence (Q9HBY8 whole entry): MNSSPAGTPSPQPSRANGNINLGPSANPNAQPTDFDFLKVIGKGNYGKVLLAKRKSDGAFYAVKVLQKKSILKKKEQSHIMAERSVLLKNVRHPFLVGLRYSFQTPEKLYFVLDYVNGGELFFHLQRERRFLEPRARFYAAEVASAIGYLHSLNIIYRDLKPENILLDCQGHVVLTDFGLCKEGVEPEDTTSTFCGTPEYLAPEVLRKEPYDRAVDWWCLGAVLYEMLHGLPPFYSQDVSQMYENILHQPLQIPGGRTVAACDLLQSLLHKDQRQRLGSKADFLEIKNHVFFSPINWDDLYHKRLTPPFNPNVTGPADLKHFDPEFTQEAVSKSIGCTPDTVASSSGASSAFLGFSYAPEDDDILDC

**Q.** What does the source list for `CC(C)NC(=O)COc1cccc(-c2nc(Nc3ccc4[nH]ncc4c3)c3ccccc3n2)c1` [KD025, 2-(3-(4-((1H-indazol-5-yl)amino)quinazolin-2-yl)phenoxy)-N-isopropylacetamide]?
**A.** remaining binding at 10 µM [1]: 91%; remaining binding at 10 µM (ALK(L1196M)): 95%; remaining binding at 10 µM (MLK2): 100%; remaining binding at 10 µM [2]: 67%; remaining binding at 10 µM [3]: 99%; remaining binding at 10 µM (WEE1): 100%; remaining binding at 10 µM (MYO3A): 94%; remaining binding at 10 µM (ANKK1): 72%; remaining binding at 10 µM (MAPKAPK5): 89%; remaining binding at 10 µM (ZAK): 77%; remaining binding at 10 µM (CAMK2D): 71%; remaining binding at 10 µM (CDC2L2): 80%; Percent Control (FLT3(ITD,D835V)): 28%; remaining binding at 10 µM (PIK3CA(C420R)): 86%; remaining binding at 10 µM (PFPK5(P.falciparum)): 100%; remaining binding at 10 µM (SRPK2): 66%; remaining binding at 10 µM (TYRO3): 91%; remaining binding at 10 µM (MARK1): 100%; remaining binding at 10 µM (SGK2): 100%; remaining binding at 10 µM (S6K1): 74%; remaining binding at 10 µM (CSNK1G1): 70%; remaining binding at 10 µM (PIK3C2G): 58%; remaining binding at 10 µM (SIK): 72%; remaining binding at 10 µM (EPHB6): 67%; remaining binding at 10 µM (EPHA7): 100%; remaining binding at 10 µM (PIM3): 63%; remaining binding at 10 µM (TEC): 95%; remaining binding at 10 µM (MLK1): 87%; remaining binding at 10 µM (CAMK2G): 99%; remaining binding at 10 µM (VRK2): 71%; remaining binding at 10 µM (PAK2): 79%; Percent Control (FLT3(ITD)): 31%; remaining binding at 10 µM (CSNK1A1L): 89%; remaining binding at 10 µM [4]: 85%; remaining binding at 10 µM (MTOR): 92%; remaining binding at 10 µM (ACVR1B): 91%; remaining binding at 10 µM (CDK5): 83%; remaining binding at 10 µM (TSSK3): 77%; remaining binding at 10 µM (ICK): 100%; remaining binding at 10 µM (RAF1): 62%; remaining binding at 10 µM (SNARK): 71%; remaining binding at 10 µM (ERK1): 63%; remaining binding at 10 µM (CHEK1): 100%
